From patent US5631247A, “Compounds and compositions with nitrogen-containing non-basic side chains” (Eli Lilly and Company, priority 1996, dated 1997)
pIC50: −log10 of the molar value.

Experiments:
[1] = system: eosinophil peroxidase; assay: Uterine eosinophil peroxidase (EPO) assay in ovariectomized rats (four day dosing); assay type: in vivo, female Sprague Dawley rats; parameters: Uterine EPO (Vmax): unit not given here; settings: oral, OVX rats; for Uterine EPO (Vmax): daily for 4 days
Experimental: (§1) In the examples illustrating the methods, a post-menopausal model was used in which effects of different treatments upon various biological parameters were determined, including serum cholesterol concentration, uterine weight, eosinophil peroxidase activity, MCF-7 cell proliferation, and bone density.
(§2) Animals were dosed daily for 4 days. […] A blood sample was collected by cardiac puncture.
(§3) The data presented in Table 1 reflect the response of 5 to 6 rats per treatment.

[2] = system: MCF-7 breast adenocarcinoma cells; assay: MCF-7 proliferation assay (tritiated thymidine); assay type: cell-based; settings: Homo sapiens, MCF7, 48 hours with drug, read-out: ED50 (the source's name)
Experimental: MCF-7 breast adenocarcinoma cells (ATCC HTB 22) were maintained in MEM (minimal essential medium, phenol red-free, Sigma, St. Louis, Mo.) supplemented with 10% fetal bovine serum (FBS) (V/V), L-glutamine (2 mM), sodium pyruvate (1 mM), HEPES {(N-[2-hydroxyethyl]piperazine-N'-[2-ethanesulfonic acid]10 mM}, non-essential amino acids and bovine insulin (1 μg/ml) (maintenance medium). Ten days prior to assay, MCF-7 cells were switched to maintenance medium supplemented with 10% dextrancoated charcoal stripped fetal bovine serum (DCC-FBS) assay medium) in place of 10% FBS to deplete internal stores of steroids. MCF-7 cells were removed from maintenance flasks using cell dissociation medium (Ca++/Mg++ free HBSS (phenol red-free) supplemented with 10 mM HEPES and 2 mM EDTA). Cells were washed twice with assay medium and adjusted to 80,000 cells/mi. Approximately […] (8,000 cells) were added to flat-bottom microculture wells (Costar 3596) and incubated at 37° C. in a 5% CO2 humidified incubator for 48 hours to allow for cell adherence and equilibration after transfer. Serial dilutions of drugs or DMSO as a diluent control were prepared in assay medium and […] to triplicate microcultures followed by 50 ml assay medium for a final volume of […]. After an additional 48 hours at 37° C. in a 5% CO2 humidified incubator, microcultures were pulsed with tritiated thymidine (1 uCi/well) for 4 hours. Cultures were terminated by freezing at -70° C. for 24 hours followed by thawing and harvesting of microcultures. Samples were counted by liquid scintillation. Results in Table 3 below show the ED50 for certain compounds of the present invention.

[3] = system: uterus; assay: Wet uterine weight in ovariectomized rats (four day dosing); assay type: in vivo, female Sprague Dawley rats; settings: for change in vivo at 0.1 mg/kg / change in vivo at 1 mg/kg / change in vivo at 10 mg/kg: Rattus norvegicus, po, 96 h, daily for 4 days, increase vs OVX control, read-out: Uterine Weight (% inc. OVX)
Experimental: as §1, §2
(§4) Data presented in Table 1 below show comparative results among control ovariectomized rats, rats treated with EE2, and rats treated with certain compounds of the present invention. […] This uterine response to estrogen is well recognized in the art.
as §3

[4] = system: serum cholesterol; assay: Serum cholesterol in ovariectomized rats (post-menopausal rat model, four day dosing); assay type: in vivo, female Sprague Dawley rats; settings: OVX rats, oral, 4 days; EE2 at 0.1 mg/Kg/day
Experimental: as §1, §2
Blood samples were allowed to clot at room temperature for 2 hours, and serum was obtained following centrifugation for 10 minutes at 3000 rpm. Serum cholesterol was determined using a Boshringer Mannheim Diagnostics high performance cholesterol assay. Briefly the cholesterol was oxidized to cholest-4-en-3-one and hydrogen peroxide. The hydrogen peroxide was then reacted with phenol and 4-aminophenazone in the presence of peroxidase to produce a p-quinone imine dye, which was read spectrophotemetrically at 500 nm. Cholesterol concentration was then calculated against a standard curve. The entire assay was automated using a Biomek Automated Workstation.
as §4, §3

[5] = system: tibia; assay: Bone density assay (35 day dosing, tibia, single photon absorptiometry); assay type: in vivo, female Sprague Dawley rats; settings: OVX rats, oral in 20% hydroxypropyl β-cyclodextrin, daily for 35 days
Experimental: Following the General Preparation procedure described above, the rats were treated daily for 35 days (6 rats per treatment group) and sacrificed by decapitation on the 36th day. The 35 day time period was sufficient to allow maximal effect on bone density, measured as described herein. At the time of sacrifice, the uteri were removed, dissected free of extraneous tissue, and the fluid contents were expelled before determination of wet weight in order to confirm estrogen deficiency associated with complete ovariectomy. […] The uteri were then placed in 10% neutral buffered formalin to allow for subsequent histological analysis. The right tibias were excised and scanned at the distal metaphysis 1 mm from the patellar groove with single photon absorptiometry. Results of the densitometer measurements represent a calculation of bone density as a function of the bone mineral content and bone width. In accordance with the procedures outlined above, compounds of the present invention and EE2 in 20% hydroxypropyl β-cyclodextrin were orally administered to test animals.

SMILES | Uterine EPO (Vmax) ([1]; 0.1 mg/kg) | Uterine EPO (Vmax) ([1]; 1 mg/kg) | pIC50 [2] | change in vivo at 0.1 mg/kg [3] | change in vivo at 1 mg/kg [3] | change in vivo at 10 mg/kg [3] | Uterine EPO (Vmax) ([1]; 10 mg/kg) | eosinophil infiltration into the uterus (in words) ([1]; 4 days, by eosinophil peroxidase activity) | effect on serum cholesterol (in words) [4] | effect on bone loss / tibia density (in words) [5] | effect on uterine weight (in words) ([3]; OVX rats, oral, 4 days, EE2 at 0.1 mg/Kg/day)
CC(C#N)Oc1ccc(C(=O)c2c(-c3ccc(O)cc3)sc3cc(O)ccc23)cc1 (stereo not shown) [Compound 16] | 2.3 | 3.9 | 10.70 | 0.7% | 27.4% | 99.2% |  |  |  |  | 
O=C(NCCOc1ccc(C(=O)c2c(-c3ccc(O)cc3)sc3cc(O)ccc23)cc1)c1ccccc1 [Compound 18] | 3.2 | 3.6 | 6.30 | 16.1% | 25.7% | 12.6% | 3.6 |  |  |  | 
CC(=O)N(CCOc1ccc(C(=O)c2c(-c3ccc(O)cc3)sc3cc(O)ccc23)cc1)C1CCCCC1 [Compound 19] | 5.4 | 3.7 | 10.00 | 7% | -25.5% | 47% | 29.3 |  |  |  | 
O=C(NCCOc1ccc(C(=O)c2c(-c3ccc(O)cc3)sc3cc(O)ccc23)cc1)NC1CCCCC1 [Compound 20] | 3.0 | 2.5 | 10.00 | -29.9% | -27.4% | -32.7% | 2.9 |  |  |  | 
O=C(c1ccc(OCCNC(=O)C2CCCCC2)cc1)c1c(-c2ccc(O)cc2)sc2cc(O)ccc12 [Compound 21] | 3.1 | 2.6 |  | -5.5% | -11.5% | 8.6% | 2.4 |  |  |  | 
CC(C)(C)C(=O)N1CCCCC1COc1ccc(C(=O)c2c(-c3ccc(O)cc3)sc3cc(O)ccc23)cc1 (stereo not shown) [Compound 22] | 3.5 | 20.0 | 11.00 | 1.9% | 19.6% | 46.9% | 69.5 |  |  |  | 
CC(C)(C)C(=O)N1CCC(Oc2ccc(C(=O)c3c(-c4ccc(O)cc4)sc4cc(O)ccc34)cc2)CC1 [Compound 23] | 1.6 | 3.8 | 8.40 | -4.3% | 0.8% | 22.3% | 6.7 |  |  |  | 
CC(=O)NCCOc1ccc(C(=O)c2c(-c3ccc(O)cc3)sc3cc(O)ccc23)cc1 [Compound 26] | 1.3 | 0.7 |  | -17.5% | -28.8% | 25.8% |  |  |  |  | 
C#C[C@]1(O)CC[C@H]2[C@@H]3CCc4cc(O)ccc4[C@H]3CC[C@@]21C [ethynyl estradiol, 17α-Ethynyl estradiol, reference compound] | 120.0 |  |  | 235% |  |  |  | caused a substantial, expected increase in eosinophil infiltration | caused a decrease in serum cholesterol | prevented this loss | substantially greater than the uterine weight of ovariectomized test animals
